# Assay results taken from US8410178B2, “CIS 3,4-dihydroxy-2-(3-methylbutanoyl)-5-(3-methylbutyl)-4-(4-methylpentanoyl)cyclopent-2-en-1-derivatives, substantially enantiomerically pure compositions and methods” (KinDex Therapeutics, LLC, priority 2010, dated 2013).
# pIC50, pKi: −log10 of the molar value.
# Key:
# PPARδ = target: T1, PPARδ (Homo sapiens, UniProt Q03181); experiment: PPARδ luciferase reporter assay; format: cell-based; details: reporter cells, 20 hours
# T1 sequence (Q03181 1-441): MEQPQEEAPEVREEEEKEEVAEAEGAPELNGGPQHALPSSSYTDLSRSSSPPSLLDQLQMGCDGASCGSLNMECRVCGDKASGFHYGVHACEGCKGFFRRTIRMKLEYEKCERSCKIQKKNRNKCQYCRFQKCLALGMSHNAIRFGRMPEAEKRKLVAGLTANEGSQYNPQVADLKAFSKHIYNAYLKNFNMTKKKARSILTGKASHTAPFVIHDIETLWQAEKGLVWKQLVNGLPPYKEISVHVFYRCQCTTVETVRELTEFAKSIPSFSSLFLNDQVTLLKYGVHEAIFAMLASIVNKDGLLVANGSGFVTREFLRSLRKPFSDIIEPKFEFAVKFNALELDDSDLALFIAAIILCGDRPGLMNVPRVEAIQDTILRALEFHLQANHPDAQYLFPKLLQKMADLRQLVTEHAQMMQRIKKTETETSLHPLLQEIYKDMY
# Procedure: (§1) The functional effect of (+)-KDT501 on PPARα, PPARδ, and PPARγ activity was evaluated using a PPAR reporter assay (INDIGO Biosciences, PA). This assay utilizes non-human mammalian cells engineered to provide constitutive high level expression of PPARα, PPARδ, or PPARγ and containing a luciferase report gene specific to the appropriate PPAR. Following activation by agonist binding, PPAR induces expression of the luciferase reporter gene. Luciferase activity therefore provides a surrogate for measuring PPAR activity in agonist-treated cells.
# (§2) Reporter cells were plated on a 96-well plate at 100 μL per well, and 100 μL of (+)-KDT501 at various final concentrations (25, 12.5, 6.25, 3.125, 1.56 and 0.78 μM) was added to each well. […] 0.1% DMSO was also used as a negative control for each assay. Plates are incubated for 20 hours in a humidified incubator at 37° C. and 5% CO2. After incubation, cell medium was discarded and the cells were treated with 100 μL of luciferase detection reagent for 15 minutes. Plates were analyzed using a luminometer (Victor2, Perkin Elmer). Average relative light unit (RLU) and standard deviation were analyzed using GraphPad Prism.
# [1] = target: T2, peroxisome proliferator-activated receptor gamma (PPARγ) (Homo sapiens, UniProt P37231); experiment: Competitive binding to PPARγ ([3H]rosiglitazone)
# T2 sequence (P37231 1-505): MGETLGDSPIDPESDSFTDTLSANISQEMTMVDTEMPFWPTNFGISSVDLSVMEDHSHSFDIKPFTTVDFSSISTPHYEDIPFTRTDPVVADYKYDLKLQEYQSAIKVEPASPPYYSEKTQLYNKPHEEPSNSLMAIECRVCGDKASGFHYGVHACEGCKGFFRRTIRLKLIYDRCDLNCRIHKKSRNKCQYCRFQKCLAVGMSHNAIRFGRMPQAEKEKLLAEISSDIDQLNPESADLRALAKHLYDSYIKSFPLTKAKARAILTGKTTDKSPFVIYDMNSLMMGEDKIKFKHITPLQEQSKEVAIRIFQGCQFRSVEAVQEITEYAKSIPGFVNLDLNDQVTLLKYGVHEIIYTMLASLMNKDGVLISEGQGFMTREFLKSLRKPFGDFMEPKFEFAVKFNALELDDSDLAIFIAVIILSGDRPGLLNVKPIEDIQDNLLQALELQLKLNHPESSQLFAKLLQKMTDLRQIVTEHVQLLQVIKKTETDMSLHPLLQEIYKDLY
# PPARγ = target: T3, PPARγ (Homo sapiens, UniProt P37231); experiment: PPARγ luciferase reporter assay; format: cell-based
# T3 sequence (P37231 1-505): T2 sequence (P37231 1-505)
# Procedure: as §1, §2
# The PPAR activity assays were repeated as described above using both (+)-KDT501(12.5, 6.25, 3.125, 1.56, and 0.78 μM) and (−)-KDT501 (25, 12.5, 6.25, 3.125, 1.56, and 0.78 μM).
# [2] = system: diet induced obese (DIO) mice; experiment: Glucose, insulin, HbA1C and fat mass in high fat diet-induced obesity (DIO) mouse model; format: in vivo
# Procedure: 14 week-old male mice were randomized and divided into seven dosing groups with 16 animals in each group: 1) vehicle only (0.5% methylcellulose (w/v), 0.2% Tween 80 (w/v); negative control), 2) (+)-KDT501 25 mg/kg, 3) (+)-KDT501 50 mg/kg, 4) (+)-KDT501 100 mg/kg, 5) (+)-KDT501 200 mg/kg, 6) metformin 200 mg/kg (positive control), and 7) pioglitazone 30 mg/kg (positive control). Drugs were administered orally twice a day for 30 days.
# Animals were weighed at randomization and once per week thereafter, with administration dosages calculated based on the most recent body weight measurements. The mice were maintained on a high fat diet (40% Kcal) (TD95217; prepared by Covance Laboratories, Greenfield, Ind.). Body composition was tested by qNMR on days −5 and 28 after the start of treatment. […]. An oral glucose tolerance test (OGTT) was performed on day 30 after the start of treatment. Mice underwent an overnight fast prior to OGTT, and tail bleeds for glucose and insulin were performed pre-glucose bolus and at 15, 30, 60, 90, and 120 minutes post-glucose bolus. The glucose bolus was 2 g dextrose/kg of body weight. OGTT results were evaluated by area under the curve (AUC) measurements and Dunnett's test.
# [3] = system: rheumatoid arthritis synovial fibroblasts (RASF); experiment: IL-1β-mediated inflammatory factors in RASFs; format: cell-based, Human; details: IL-1β-induced, 50, 25, 12.5, and 6.25 μM
# Procedure: The anti-inflammatory effect of (+)-KDT501 was evaluated in rheumatoid arthritis synovial fibroblasts (RASF).
# Human RASF cells (Asterand, Detroit, Mich.) were cultured and maintained in DMEM/F12 (1:1) medium in the presence of 10% fetal bovine serum. Cells were subcultured in 24-well plates at a density of 1×10^4 cells per well and allowed to reach 70-80% confluence in two days. Confluent cells in serum-free medium at a final concentration of 0.1% DMSO were incubated for one hour with (+)-KDT501 at varying concentrations (50, 25, 12.5, and 6.25 μM), then stimulated with […] (10 ng/ml) for 20-24 hours. MMP-13 levels in the medium were measured using an ELISA kit (GE Healthcare, Piscataway, N.J.), and PGE2 levels were measured using an Immuno Assay Kit (Assay Designs, Ann Arbor, Mich.).
smiles,measurement,setting,value
"CC(C)CCC(=O)[C@@]1(O)C(O)=C(C(=O)CC(C)C)C(=O)[C@@H]1CCC(C)C.[K] [(+)-KDT501, (+)-(4S,5R)-3,4-dihydroxy-2-(3-methylbutanoyl)-5-(3-methylbutyl)-4-(4-methylpentanoyl)cyclopent-2-en-1-one potassium salt]",PPARδ activity,PPARδ,little or no effect
same,pIC50,[1],5.08
same,pKi,[1],5.35
same,nH,"[1]; binding target PPARγ, competitor ligand Rosiglitazone",1.1
same,Fold difference in PPARγ reporter activity,PPARγ; (+)-KDT501 versus (−)-KDT501 at 3.13 μM,3.9
same,Fold difference in PPARγ reporter activity,PPARγ; (+)-KDT501 versus (−)-KDT501 at 6.25 μM,6.7
same,Fold difference in PPARγ reporter activity,PPARγ; (+)-KDT501 versus (−)-KDT501 at 12.5 μM,6.8
same,Fold difference in PPARγ reporter activity,PPARγ; (+)-KDT501 versus (−)-KDT501 at 25 μM,3.2
same,PPARγ reporter activity (RLU),PPARγ; concentration of test compound 3.13 μM,2122 RLU
same,PPARγ reporter activity (RLU),PPARγ; concentration of test compound 6.25 μM,6536 RLU
same,PPARγ reporter activity (RLU),PPARγ; concentration of test compound 12.5 μM,16451 RLU
same,PPARγ reporter activity (RLU),PPARγ; concentration of test compound 25 μM,13419 RLU
same,PPARγ activity,"PPARγ; reporter cells, 20 hours",increased PPARγ activity in a statistically significant manner
same,insulin levels from the OGTT,"[2]; 200 mg/kg orally twice a day, day 30",significant decrease
same,blood glucose levels from the OGTT,"[2]; 100 or 200 mg/kg orally twice a day, day 30",significant decrease
same,fat mass,"[2]; 100 or 200 mg/kg orally twice a day, qNMR day 28",significant difference in fat mass versus negative control mice
same,HbA1C,"[2]; orally twice a day, day 29, dose not specified",trend towards HbA1C inhibition
same,expression of MMP-13,[3],inhibited
same,expression of PGE2,[3],inhibited
